# Laboratory results reported in patent US20060281791A1, “Methods of increasing proliferation of adult mammalian cardiomyocytes through p38 map kinase inhibition” (CHILDREN'S MEDICAL CENTER CORPORATION, priority 2005, published 2006).
# “And” between values parts separate entries of the source, which are not always exact repeats. Equal entries are not always repeated.
# Test system: neonatal rat cardiomyocytes
# Assay: cDNA microarray analysis (Affymetrix Rat Expression Set 230), x-fold changes of clustered genes
# Format: cell-based
# Conditions: 72 h; experiments (1) and (2); listed as FGF
# Protocol: Animal experiments were performed in accordance with guidelines of Children's Hospital, Boston and UCLA. Ventricular cardiomyocytes from fetal (E19), 2-day-old (P2) and adult (250-350 g) Wistar rats (Charles River) were isolated as described with minor modifications (Engel et al. 1999; Engel et al. 2003). After digestion of fetal or neonatal hearts (0.14 mg/ml collagenase II (Invitrogen), 0.55 mg/ml pancreatin (Sigma)) cells were cultured in DMEM/F12 (GIBCO) containing 3 mM Na-pyruvate, 0.2% BSA, 0.1 mM ascorbic acid (Sigma), 0.5% Insulin-Transferrin-Selenium (100×), penicillin (100 U/ml), streptomycin (100 μg/ml), and 2 mM L-glutamine (GIBCO). Adult cardiomyocytes were cultured for 1 day in standard medium (DMEM, 25 mM Hepes, 5 mM taurine, 5 mM creatine, 2 mM L-carnitine (Sigma), 20 U/ml insulin (GIBCO), 0.2% BSA, penicillin (100 U/ml), and streptomycin (100 μg/ml)). Cells were stimulated in culture medium without BSA containing 2 mM L-glutamine. Neonatal and adult cardiomyocytes were initially cultured for 48 h in the presence of 20 μM cytosine β-D-arabinofuranoside (araC, Sigma) and 5% horse serum before stimulation to prevent proliferation of non-myocytes. Adult cardiomyocytes were incubated another 3 days with araC during stimulation. Neonatal cardiomyocytes were stimulated every day with growth factors for BrdU and H3P analyses (FGF1 and NRG-1-1β at 50 ng/ml, IL-1β at 100 ng/ml, R&D Systems, all diluted in 0.1% BSA/PBS). SB203580 and LY294002 (Calbiochem) was added every day. Adult cardiomyocytes were stimulated with fresh medium and SB203580 every 3 days.
# RNA of neonatal cardiomyocytes was prepared 72 h after stimulation using Trizol (Invitrogen). RT-PCR was performed following standard protocols (Supplemental Table S4). Affymetrix technology was applied using the Rat Expression Set 230.
# To determine the effect of p38 inhibition on cardiomyocyte differentiation and proliferation, a specific inhibitor of p38α and p38β, SB203580, was used and evaluated using cDNA microarray analyses using neonatal rat cardiomyocytes. […] Expression changes of a subset of genes were validated by RT-PCR.
# Stimulation of neonatal cardiomyocytes with FGF1 induces fetal gene expression. To determine if FGF1, in combination with p38 inhibition, can reverse differentiation and induce cell cycle re-entry, we repeated cDNA microarray analyses (Supplemental Table S1). […]
substance,measurement,value
FGF1: growth factor FGF1 (R&D Systems),"Growth response protein (CL-6) expression, x-fold change",2.5 x-fold and 1.8 x-fold
same,"Hepatocyte F2alpha receptor expression, x-fold change",0.9 x-fold and 1.0 x-fold
same,"IBP6 expression, x-fold change",0.6 x-fold and 0.9 x-fold
same,"IGF1 expression, x-fold change",0.5 x-fold and 0.3 x-fold
same,"IGFBP3 expression, x-fold change",0.3 x-fold and 0.4 x-fold
same,"IL12a expression, x-fold change",2.9 x-fold and 2.8 x-fold
same,"IRX4 expression, x-fold change",0.7 x-fold and 0.9 x-fold
same,"Id1 expression, x-fold change",2.7 x-fold and 2.3 x-fold
same,"Id3a expression, x-fold change",2.4 x-fold and 1.9 x-fold
same,"Integrin, alpha 6 expression, x-fold change",2.4 x-fold and 2.5 x-fold
same,"Integrin, alpha 11 expression, x-fold change",1.7 x-fold and 1.2 x-fold
same,"Jag1 expression, x-fold change",0.4 x-fold and 0.6 x-fold
same,"Ki67 expression, x-fold change",1.7 x-fold and 1.5 x-fold
same,"Kinesin family member 22 expression, x-fold change",1.6 x-fold and 1.7 x-fold
same,"Kinetochore-associated protein 1 expression, x-fold change",1.9 x-fold and 2.1 x-fold
same,"Kruppel-like factor 2 expression, x-fold change",0.7 x-fold and 0.9 x-fold
same,"LDLR expression, x-fold change",4.0 x-fold and 2.7 x-fold
same,"Lgals1 expression, x-fold change",1.8 x-fold and 1.7 x-fold
same,"Lgals9 expression, x-fold change",4.3 x-fold and 3.1 x-fold
same,"Lhcgr expression, x-fold change",0.4 x-fold and 0.8 x-fold
same,"Lisch7 expression, x-fold change",0.6 x-fold and 0.8 x-fold
same,"Lot1 expression, x-fold change",0.3 x-fold and 0.4 x-fold
same,"M-protein expression, x-fold change",8.7 x-fold and 11.0 x-fold
same,"MAD2-LIKE 1 expression, x-fold change",1.5 x-fold and 2.8 x-fold
same,"MCAK expression, x-fold change",1.8 x-fold and 1.7 x-fold
same,"MCIP1 expression, x-fold change",3.0 x-fold and 3.3 x-fold
same,"MCP-3 expression, x-fold change",1.3 x-fold and 0.7 x-fold
same,"MDP77 expression, x-fold change",1.5 x-fold and 0.8 x-fold
same,"MKK6 expression, x-fold change",0.2 x-fold and 0.1 x-fold
same,"MLC1, atrial isoform expression, x-fold change",3.3 x-fold and 2.8 x-fold
same,"MLC 2a expression, x-fold change",2.7 x-fold and 2.1 x-fold
same,"MLC3, alkali expression, x-fold change",13.9 x-fold and 23.2 x-fold
same,"MPP1 expression, x-fold change",1.4 x-fold and 2.0 x-fold
same,"MURF1 expression, x-fold change",0.6 x-fold and 0.5 x-fold
same,"MURF expression, x-fold change",0.8 x-fold and 0.9 x-fold
same,"Mapt expression, x-fold change",1.7 x-fold and 1.9 x-fold
same,"Mdk expression, x-fold change",0.4 x-fold and 0.6 x-fold
same,"Melusin expression, x-fold change",3.8 x-fold and 3.0 x-fold
same,"Moesin expression, x-fold change",2.2 x-fold and 2.4 x-fold
same,"Multi PDZ domain protein 1 expression, x-fold change",0.3 x-fold and 0.6 x-fold
same,"Mustang expression, x-fold change",4.8 x-fold and 5.2 x-fold
same,"Myopodin expression, x-fold change",3.7 x-fold and 3.2 x-fold
same,"NppB expression, x-fold change",10.4 x-fold and 11.6 x-fold
same,"Nppa expression, x-fold change",3.1 x-fold and 3.5 x-fold
same,"Nr1h3 expression, x-fold change",0.7 x-fold and 0.6 x-fold
same,"Nrtn expression, x-fold change",0.4 x-fold and 0.6 x-fold
same,"Ntf3 expression, x-fold change",0.2 x-fold and 0.3 x-fold
same,"NuSAP expression, x-fold change",1.5 x-fold and 1.4 x-fold
same,"Nuclear receptor co-activator NRIF3 expression, x-fold change",1.4 x-fold and 1.2 x-fold
same,"Osteoblast specific factor expression, x-fold change",0.3 x-fold and 0.2 x-fold
same,"P57 expression, x-fold change",0.2 x-fold and 0.3 x-fold
same,"PAPIN expression, x-fold change",0.5 x-fold and 0.7 x-fold
same,"PEA-15 expression, x-fold change",2.5 x-fold and 2.1 x-fold
same,"PRKAR2 expression, x-fold change",1.6 x-fold and 1.2 x-fold
same,"PTP-RL9, receptor-type protein tyrosine phosphatase expression, x-fold change",1.1 x-fold and 0.8 x-fold
same,"Pdcd4 expression, x-fold change",0.8 x-fold and 0.7 x-fold
same,"Pdgfra expression, x-fold change",0.4 x-fold and 0.3 x-fold
same,"Pem expression, x-fold change",0.9 x-fold and 0.7 x-fold
same,"Plasminogen activator inhibitor 1 expression, x-fold change",5.3 x-fold and 8.8 x-fold
same,"Pleiotrophin expression, x-fold change",0.2 x-fold and 0.1 x-fold
same,"Polyamine-modulated factor 1 expression, x-fold change",1.5 x-fold and 1.4 x-fold
same,"Prc1 expression, x-fold change",2.4 x-fold and 1.9 x-fold
same,"Prg-1 expression, x-fold change",0.2 x-fold and 0.3 x-fold
same,"Protease inhibitor 7 expression, x-fold change",1.3 x-fold and 0.8 x-fold
same,"Protein-tyrosine phosphatase expression, x-fold change",0.5 x-fold and 0.6 x-fold
same,"Ptpla expression, x-fold change",3.3 x-fold and 2.2 x-fold
same,"Ptprc/CD45 expression, x-fold change",0.5 x-fold and 0.7 x-fold
same,"RAC2 expression, x-fold change",0.7 x-fold and 0.6 x-fold
same,"RAD51 expression, x-fold change",1.5 x-fold and 1.0 x-fold
same,"RNA binding motif protein 5 expression, x-fold change",0.6 x-fold and 0.5 x-fold
same,"ROC2 expression, x-fold change",1.6 x-fold and 2.4 x-fold
same,"Rac GTPase-activating protein 1 expression, x-fold change",1.3 x-fold and 1.9 x-fold
same,"Retinoic acid inducible protein 3 expression, x-fold change",1.5 x-fold and 1.3 x-fold
same,"Retinoic acid receptor, gamma expression, x-fold change",0.6 x-fold and 1.0 x-fold
same,"Rgpr expression, x-fold change",0.6 x-fold and 0.9 x-fold
same,"Rgs3 expression, x-fold change",1.3 x-fold and 1.9 x-fold
same,"Rho family GTPase 1 expression, x-fold change",4.1 x-fold and 3.9 x-fold
same,"Rho-related BTB domain containing 3 expression, x-fold change",0.5 x-fold and 0.6 x-fold
same,"SHARP-1/dec2/Bhlhb3 expression, x-fold change",0.2 x-fold and 0.3 x-fold
same,"SPARC related modular calcium binding 2 expression, x-fold change",0.3 x-fold and 0.4 x-fold
same,"STK38 expression, x-fold change",3.9 x-fold and 2.0 x-fold
same,"STk18 expression, x-fold change",1.3 x-fold and 1.9 x-fold
same,"Semaphorin 4B expression, x-fold change",0.6 x-fold and 0.5 x-fold
same,"Semaphorin 6D-1 expression, x-fold change",0.5 x-fold and 0.3 x-fold
same,"Sh3kbp1 expression, x-fold change",1.1 x-fold and 0.9 x-fold
same,"Shc SH2-domain binding protein 1 expression, x-fold change",1.6 x-fold and 1.1 x-fold
same,"Smooth muscle 22 protein expression, x-fold change",1.2 x-fold and 1.4 x-fold
same,"Snf1lk expression, x-fold change",3.5 x-fold and 3.9 x-fold
same,"Soluble fibroblast growth factor receptor IIIb (sKGF-R gene) expression, x-fold change",0.9 x-fold and 0.8 x-fold
same,"Sox4 expression, x-fold change",0.7 x-fold and 0.6 x-fold
same,"Sox11 expression, x-fold change",0.9 x-fold and 1.3 x-fold
same,"Spag5 expression, x-fold change",1.4 x-fold and 1.9 x-fold
same,"Sponf expression, x-fold change",0.2 x-fold and 0.3 x-fold
same,"Stathmin expression, x-fold change",1.2 x-fold and 1.6 x-fold
same,"TBX2 expression, x-fold change",1.8 x-fold and 2.0 x-fold
same,"Testin expression, x-fold change",0.6 x-fold and 0.7 x-fold
same,"Tgf beta 2 expression, x-fold change",1.4 x-fold and 1.5 x-fold
same,"Tgfbr2 expression, x-fold change",0.5 x-fold and 0.9 x-fold
same,"Thymidine kinase expression, x-fold change",1.5 x-fold and 1.9 x-fold
same,"Tieg expression, x-fold change",0.3 x-fold and 0.4 x-fold
same,"Tmeff1 expression, x-fold change",2.1 x-fold and 2.4 x-fold
same,"Tnfrsf12a expression, x-fold change",3.7 x-fold and 3.3 x-fold
same,"Topoisomerase (DNA) II alpha expression, x-fold change",1.8 x-fold and 1.7 x-fold
same,"Transferrin receptor expression, x-fold change",2.9 x-fold and 1.6 x-fold
same,"Tspan-2 expression, x-fold change",2.4 x-fold and 1.8 x-fold
same,"Tspan-6 expression, x-fold change",2.2 x-fold and 1.7 x-fold
same,"Tubulin alpha-4 expression, x-fold change",2.7 x-fold and 2.6 x-fold
same,"Tubulin beta class I expression, x-fold change",2.4 x-fold and 1.9 x-fold
same,"Tubulin, beta 2 expression, x-fold change",1.3 x-fold and 1.2 x-fold
same,"Unc5h2 expression, x-fold change",1.7 x-fold and 1.3 x-fold
same,"VEGF receptor-2FLK-1 expression, x-fold change",1.8 x-fold and 1.6 x-fold
same,"VEGFD expression, x-fold change",0.1 x-fold and 0.2 x-fold
same,"Vegfc expression, x-fold change",0.4 x-fold and 0.6 x-fold
